AC1.4 data for 26 compounds are collected here from US11780826B2 (Amgen Inc., priority 2017, dated 2023).

This experiment has as its system Bovine cardiac myofibrils. The experiment is described as follows: In vitro model of dose-dependent myofibril ATPase modulation (AC1.4, pyruvate kinase/lactate dehydrogenase-coupled ATPase assay at pCa25). The experiment is classed as biochemical. As to conditions: concentration at which ATPase activity was 1.4-fold higher than the bottom of the dose curve, mean of a minimum of two independent tests. The procedure, abridged:
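Compound dilutions were premixed with myofibrils, coupling enzymes, EGTA and CaCl2, then the reaction was started with an equal volume carrying ATP (final 1 mM), NADH and PEP. ATP turnover was followed at 340 nm, and dose responses were fit to a four-parameter equation.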
As to `N#CC1CN(S(=O)(=O)N2CCC[C@H](C(=O)N3[C@@H](C(=O)NCc4ccc(C(F)(F)F)cn4)C[C@H]4C[C@H]43)C2)C1` [Example 348, (1R,3R,5R)-2-(((3S)-1-((3-cyano-1-azetidinyl)sulfonyl)-3-piperidinyl)carbonyl)-N-((5-(trifluoromethyl)-2-pyridinyl)methyl)-2-azabicyclo[3.1.0]hexane-3-carboxamide], the AC1.4 amounted to 1.0273 µM.
In turn, `CC(NC(=O)[C@H]1CCCN1C(=O)[C@H]1CCCN(S(=O)(=O)N2CC(C#N)C2)C1)c1ccc(OC(F)F)cc1` (stereo partly drawn) [Example 594, (2R)-1-((S)-1-((3-cyanoazetidin-1-yl)sulfonyl)piperidine-3-carbonyl)-N-(1-(4-(difluoromethoxy)phenyl)ethyl)pyrrolidine-2-carboxamide] came in with an AC1.4 of 3.505 µM.
With `CS(=O)(=O)c1cncc(C(=O)N2CCC[C@@H]2C(=O)NC(c2ccc(C(F)(F)F)cc2F)C2CC2)c1` (stereo partly drawn) [Example 809, (2R)-N-(cyclopropyl(2-fluoro-4-(trifluoromethyl)phenyl)methyl)-1-(5-(methylsulfonyl)nicotinoyl)pyrrolidine-2-carboxamide] the figure was 4.951 µM; with `COc1cc2c(cc1F)CCC2NC(=O)[C@H]1CCCN1C(=O)[C@H]1CCCN(S(=O)(=O)N2CC(C#N)C2)C1` (stereo partly drawn) [Example 622, (2R)-1-((S)-1-((3-cyanoazetidin-1-yl)sulfonyl)piperidine-3-carbonyl)-N-(5-fluoro-6-methoxy-2,3-dihydro-1H-inden-1-yl)pyrrolidine-2-carboxamide], 3.9515 µM.
The value for `N#CC1CN(S(=O)(=O)N2CCCC(F)(C(=O)N3CCC[C@@H]3C(=O)NCc3ccc(C(F)(F)F)cc3)C2)C1` (stereo partly drawn) [Example 514, (2R)-1-(1-((3-cyanoazetidin-1-yl)sulfonyl)-3-fluoropiperidine-3-carbonyl)-N-(4-(trifluoromethyl)benzyl)pyrrolidine-2-carboxamide] was 2.433 µM.
With `CS(=O)(=O)c1cccc(C(=O)N2C[C@@H](F)C[C@@H]2C(=O)N[C@@H](c2ccc(C(F)(F)F)cc2F)C2(F)COC2)c1` [Example 706, (4S)-4-fluoro-N-((S)-(3-fluoro-3-oxetanyl)(2-fluoro-4-(trifluoromethyl)phenyl)methyl)-1-(3-(methylsulfonyl)benzoyl)-D-prolinamide], the AC1.4 is 5.7465 µM.
`Cc1noc(C2CN(S(=O)(=O)N3CCC[C@H](C(=O)N4CCC[C@@H]4C(=O)NCc4ccc(C(F)(F)F)cc4)C3)C2)n1` [Example 688, 1-(((3S)-1-((3-(3-methyl-1,2,4-oxadiazol-5-yl)-1-azetidinyl)sulfonyl)-3-piperidinyl)carbonyl)-N-(4-(trifluoromethyl)benzyl)-D-prolinamide]: the AC1.4 came to 5.317 µM.
The value for `CC1(c2cccc(C(=O)N3CCC[C@@H]3C(=O)N[C@@H](c3ccc(C(F)(F)F)cc3F)C3CC3)c2)COC1` [Example 691, N-((R)-cyclopropyl(2-fluoro-4-(trifluoromethyl)phenyl)methyl)-1-(3-(3-methyl-3-oxetanyl)benzoyl)-D-prolinamide] was 5.3575 µM; that for `CCOc1ccc(S(C)(=O)=O)cc1C(=O)N1CCC[C@@H]1C(=O)N[C@@H](c1ccc(C(F)(F)F)cc1F)C1CC1` [Example 554, N-((R)-cyclopropyl(2-fluoro-4-(trifluoromethyl)phenyl)methyl)-1-(2-ethoxy-5-(methylsulfonyl)benzoyl)-D-prolinamide] was 2.688 µM.
Take `C[C@@H](NC(=O)[C@H]1CCCN1C(=O)[C@H]1CCCN(S(=O)(=O)N2CC(C#N)C2)C1)c1ccc(Cl)c(F)c1` [Example 69, N-((1R)-1-(4-chloro-3-fluorophenyl)ethyl)-1-(((3S)-1-((3-cyano-1-azetidinyl)sulfonyl)-3-piperidinyl)carbonyl)-D-prolinamide]: the AC1.4 is 0.08835 µM.
In the case of `CCS(=O)(=O)c1cccc(C(=O)N2[C@@H](C(=O)NCc3cc(F)c(Cl)cc3F)C[C@H]3C[C@H]32)c1` [Example 617, (1R,3R,5R)-N-(4-chloro-2,5-difluorobenzyl)-2-(3-(ethylsulfonyl)benzoyl)-2-azabicyclo[3.1.0]hexane-3-carboxamide], the AC1.4 was found to be 3.626 µM.
Turning to `CN(C)S(=O)(=O)c1cccc(C(=O)N2CCC[C@@H]2C(=O)N[C@@H](c2ccc(C(F)(F)F)cc2F)C2CC2)c1` [Example 58, N-((R)-cyclopropyl(2-fluoro-4-(trifluoromethyl)phenyl)methyl)-1-(3-(dimethylsulfamoyl)benzoyl)-D-prolinamide], the AC1.4 is 0.06485 µM.
The value for `CS(=O)(=O)c1cncc(C(=O)N2C[C@H](C(F)F)C[C@@H]2C(=O)N[C@@H](c2ccc(C(F)(F)F)cc2F)C2CC2)c1` [Example 682, (4R)-N-((R)-cyclopropyl(2-fluoro-4-(trifluoromethyl)phenyl)methyl)-4-(difluoromethyl)-1-((5-(methylsulfonyl)-3-pyridinyl)carbonyl)-D-prolinamide] was 4.606 µM.
`C[C@@H](NC(=O)[C@H]1CCCN1C(=O)[C@@H]1CN(S(=O)(=O)N2CC(C#N)C2)CCN1)c1ccc(Cl)cc1F` [Example 254, N-((1R)-1-(4-chloro-2-fluorophenyl)ethyl)-1-(((2S)-4-((3-cyano-1-azetidinyl)sulfonyl)-2-piperazinyl)carbonyl)-D-prolinamide]: the AC1.4 stood at 0.6139 µM.
With `N#CC1CN(S(=O)(=O)N2CCN[C@H](C(=O)N3CCC[C@@H]3C(=O)NCc3cc(Cl)cc(Cl)c3)C2)C1` [Example 790, 1-(((2S)-4-((3-cyano-1-azetidinyl)sulfonyl)-2-piperazinyl)carbonyl)-N-(3,5-dichlorobenzyl)-D-prolinamide] the figure was 8.9725 µM.
Compound `CC(C)(O)c1cccc(C(=O)N2[C@@H](C(=O)N[C@@H](c3cc(F)c(C(F)(F)F)cc3F)C3COC3)C[C@H]3C[C@H]32)c1` [Example 819, (1R,3R,5R)-N-((R)-(2,5-difluoro-4-(trifluoromethyl)phenyl)(oxetan-3-yl)methyl)-2-(3-(2-hydroxypropan-2-yl)benzoyl)-2-azabicyclo[3.1.0]hexane-3-carboxamide] yielded an AC1.4 of 1.3468 µM.
Take `CS(=O)(=O)c1ccc(N)c(C(=O)N2CCC[C@@H]2C(=O)N[C@@H](c2ccc(C(F)(F)F)cc2F)C2CC2)c1` [Example 345, 1-(2-amino-5-(methylsulfonyl)benzoyl)-N-((R)-cyclopropyl(2-fluoro-4-(trifluoromethyl)phenyl)methyl)-D-prolinamide]: the AC1.4 is 0.9744 µM.
`O=C(N[C@@H](c1cc(F)c(C(F)(F)F)cc1F)C1COC1)[C@H]1C[C@H]2C[C@H]2N1C(=O)c1cc(C(F)(F)F)on1` [Example 823, (1R,3R,5R)-N-((R)-(2,5-difluoro-4-(trifluoromethyl)phenyl)(oxetan-3-yl)methyl)-2-(5-(trifluoromethyl)isoxazole-3-carbonyl)-2-azabicyclo[3.1.0]hexane-3-carboxamide] yielded an AC1.4 of 2.768 µM.
For the compound `C[C@H](C(=O)N[C@H](C)c1ccc(C(F)(F)F)cc1F)N(C)C(=O)[C@H]1CCCN(S(=O)(=O)N2CC(C#N)C2)C1` [Example 209, (3S)-1-((3-cyano-1-azetidinyl)sulfonyl)-N-((2R)-1-(((1R)-1-(2-fluoro-4-(trifluoromethyl)phenyl)ethyl)amino)-1-oxo-2-propanyl)-N-methyl-3-piperidinecarboxamide], the AC1.4 was 0.4473 µM.
`O=C(NCc1ccc(C(F)(F)F)cc1)[C@H]1CCCN1C(=O)[C@H]1CCCN(S(=O)(=O)NC2CS(=O)(=O)C2)C1` [Example 645, 1-(((3S)-1-((l,l-dioxido-3-thietanyl)sulfamoyl)-3-piperidinyl)carbonyl)-N-(4-(trifluoromethyl)benzyl)-D-prolinamide] came in with an AC1.4 of 4.351 µM.
The value for `CS(=O)(=O)c1cc(C(=O)N2[C@@H](C(=O)N[C@@H](c3cc(F)c(Cl)cc3F)C3CC3)C[C@@H]3C[C@@H]32)ccn1` [Example 779, (1S,3R,5S)-N-((R)-(4-chloro-2,5-difluorophenyl)(cyclopropyl)methyl)-2-((2-(methylsulfonyl)-4-pyridinyl)carbonyl)-2-azabicyclo[3.1.0]hexane-3-carboxamide] was 8.423 µM.
With `CS(=O)(=O)c1ccc(NCCO)c(C(=O)N2CCC[C@@H]2C(=O)N[C@@H](c2ccc(C(F)(F)F)cc2F)C2CC2)c1` [Example 154, N-((R)-cyclopropyl(2-fluoro-4-(trifluoromethyl)phenyl)methyl)-1-(2-((2-hydroxyethyl)amino)-5-(methylsulfonyl)benzoyl)-D-prolinamide] the figure was 0.2715 µM.
The value for `O=C(NCc1ccc(C(F)(F)F)cc1)[C@H]1CCCN1C(=O)[C@H]1CCCN(S(=O)(=O)N2CC(C(F)(F)F)C2)C1` [Example 380, 1-(((3S)-1-((3-(trifluoromethyl)-1-azetidinyl)sulfonyl)-3-piperidinyl)carbonyl)-N-(4-(trifluoromethyl)benzyl)-D-prolinamide] was 1.257 µM; that for `CS(=O)(=O)c1cccc(C(=O)N2CC(F)(F)C[C@@H]2C(=O)N[C@@H](c2ccc(C(F)(F)F)cc2F)C2CC2)c1` [Example 320, N-((R)-cyclopropyl(2-fluoro-4-(trifluoromethyl)phenyl)methyl)-4,4-difluoro-1-(3-(methylsulfonyl)benzoyl)-D-prolinamide] was 0.8613 µM.
With `Cc1ccc(C(F)(F)F)c(CNC(=O)[C@H]2CCCN2C(=O)[C@H]2CCCN(S(=O)(=O)N3CC(C#N)C3)C2)c1` [Example 741, 1-(((3S)-1-((3-cyano-1-azetidinyl)sulfonyl)-3-piperidinyl)carbonyl)-N-(5-methyl-2-(trifluoromethyl)benzyl)-D-prolinamide], the AC1.4 was 7.1615 µM.
The compound `CS(=O)(=O)c1ccc(F)c(C(=O)N2CCC[C@@H]2C(=O)N[C@@H](c2ccc(C(F)(F)F)cc2F)C2CC2)c1` [Example 464, N-((R)-cyclopropyl(2-fluoro-4-(trifluoromethyl)phenyl)methyl)-1-(2-fluoro-5-(methylsulfonyl)benzoyl)-D-prolinamide] gave an AC1.4 of 1.612 µM.
